Assay: solvent given as SMILES

Work on `Cc1ccc(C2=C(/C=C/C(=O)OC3CC[C@@]4(C)C(=CC[C@H]5[C@@H]6CC[C@H]([C@H](C)CCCC(C)C)[C@@]6(C)CC[C@@H]54)C3)C(c3ccc(C)cc3)=[N+]3C2=Nc2c(-c4ccc(C)cc4)c(Br)c(-c4ccc(C)cc4)n2[B-]3(F)F)cc1` (some centres undefined) yielded an emission maximum (in ClC(Cl)Cl) of 704 nm.

Work on `Clc1ccc(-c2nc3ccccc3n2-c2ccccc2)cc1` yielded an emission maximum (in CC#N) of 367 nm.

With `CCn1c2ccccc2c2cc(C#Cc3cc(C#Cc4ccc5c(c4)c4ccccc4n5CC)nc(S(C)(=O)=O)n3)ccc21` the emission maximum (in C1CCOC1) was 496 nm, the emission maximum (in CCOC(C)=O) was 491 nm and the emission maximum (in CN(C)C=O) was 550 nm. The emission maximum (in Cc1ccccc1) was 447 nm and the emission maximum (in ClCCl) was 510 nm.

`CC1(C)CCc2c(c3ccccc3c3nc4c(nc23)c2c(c3ccccc34)OC(C)(C)CC2)O1` showed an emission maximum (in C1CCCCC1) of 434.97 nm, an emission maximum (in C1COCCO1) of 443.26 nm and an emission maximum (in CC#N) of 449.03 nm. The emission maximum (in CC(C)O) was 448.03 nm, the emission maximum (in CCCCCC) was 434.22 nm and the emission maximum (in ClC(Cl)Cl) was 446.43 nm. The emission maximum (in c1ccccc1) was 441.7 nm.

With `C1=Cc2nc1c(-c1ccccc1)c1ccc([nH]1)c(-c1ccccc1)c1cc(c(-c3ccccc3)c3ccc([nH]3)c2-c2ccccc2)N=C1` the emission maximum (in ClCCl) was 744 nm.

Work on `CC(C)(C)c1ccc2c(c1)c1cc(C(C)(C)C)ccc1n2-c1cccc2c1Oc1c(-c3nc(-c4ccccc4)nc(-c4ccccc4)n3)cccc1C2(C)C` yielded an emission maximum (in C1CCCCC1) of 428 nm, an emission maximum (in CC(C)=O) of 503 nm and an emission maximum (in Cc1ccccc1) of 451 nm. It also gave an emission maximum (in ClC(Cl)Cl) of 489 nm.

`COc1cc2c(cc1OC)C1=C[C@H](c3ccc(Cl)cc3)C3(C(C#N)=C(C#N)N1CC2)c1cc(Cl)ccc1-c1ccc(Cl)cc13` gave an emission maximum (in ClCCl) of 406 nm.

With `COC(=O)c1cc(=O)n(C)c2cc(-c3ccccc3OC)sc12` the emission maximum (in CC#N) was 468 nm and the emission maximum (in ClCCl) was 469 nm.

With `CCCCCCCCCCCCCCCCCCOC(=O)/C=C/C1=CC2=C(c3c(C)cc(C)cc3C)c3cc(/C=C/C(=O)OCCCCCCCCCCCCCCCCCC)cn3[B-](F)(F)[N+]2=C1` the emission maximum (in ClCCl) was 606 nm.

For `C/C=C/c1cccc(OC)c1`, the emission maximum (in CC#N) was 327 nm and the emission maximum (in CCCCCC) was 325 nm.

With `CC(C)[Si](C#Cc1ccc(C#C[Si](C(C)C)(C(C)C)C(C)C)c2nc3c(nc12)Cc1ccccc1-3)(C(C)C)C(C)C` the emission maximum (in CCCCCC) was 430 nm.

For `c1ccc(COc2cc(C[n+]3ccc(-c4cc[n+](Cc5cc(OCc6ccccc6)cc(OCc6ccccc6)c5)cc4)cc3)cc(OCc3ccccc3)c2)cc1`, the emission maximum (in CC#N) was 365 nm.

In the case of `COC1=[N+]2C(=C(c3ccccc3)c3cc(SC#N)c(OC)n3[B-]2(F)F)C=C1SC#N`, the emission maximum (in CC#N) is reported as 553 nm, the emission maximum (in CCCCCC) is reported as 560 nm and the emission maximum (in CCOC(C)=O) is reported as 556 nm. The emission maximum (in CO) was 550 nm and the emission maximum (in ClCCl) was 555 nm.

`FC(F)(F)c1ccc(B2c3ccccc3Nc3ccccc32)c(C(F)(F)F)c1` gave an emission maximum (in ClCCl) of 407 nm.

Work on `COc1ccc(N(c2ccc(OC)cc2)c2ccc(-c3ccc(C=C(C#N)C#N)cc3)cc2)cc1` yielded an emission maximum (in ClC(Cl)Cl) of 696 nm.

In the case of `Cc1ccc2nc3c(=O)[nH]c(=O)[nH]c3nc2c1`, the emission maximum (in CC#N) is reported as 426 nm and the emission maximum (in ClCCCl) is reported as 425 nm.

For `O=c1[nH]c2ccccc2[nH]1`, the emission maximum (in C1CCOC1) was 315 nm, the emission maximum (in CC#N) was 313.01 nm and the emission maximum (in CC(C)=O) was 307 nm. The emission maximum (in CCCCCCC) was 297 nm, the emission maximum (in CCCCCl) was 302 nm and the emission maximum (in CCCCO) was 311 nm. The emission maximum (in CCCO) was 310 nm, the emission maximum (in CCCOCCC) was 310 nm and the emission maximum (in CCO) was 310 nm.

In the case of `Cc1ccccc1C1=C2C=c3c(oc4ccccc34)=[N+]2[B-](F)(F)n2c1cc1c3ccccc3oc12`, the emission maximum (in C1CCCCC1) is reported as 595.5 nm, the emission maximum (in CCOC(C)=O) is reported as 595 nm and the emission maximum (in CO) is reported as 595 nm.

`c1ccc2c(c1)Cc1cc3c(cc1-2)Cc1ccccc1-3` showed an emission maximum (in C1CCCCC1) of 340 nm and an emission maximum (in ClCCl) of 356 nm.

Compound `F[B-]1(F)N2C=CN=CC2=[N+]2[N+]1=Cc1c(-c3ccccc3)cc(-c3ccccc3)n1[B-]2(F)F` has an emission maximum (in ClCCl) of 560 nm.

Compound `Cc1ccc(-n2c(-c3cccc4cc[nH]c34)nc3c4ccccc4c4ccccc4c32)cc1` has an emission maximum (in Cc1ccccc1) of 377 nm.

Compound `CC(=O)c1ccc(-c2cccc3ncc(-c4ccccc4)n23)cc1` has an emission maximum (in ClCCl) of 506 nm.

Work on `Nc1ccc2ccc([O-])cc2c1` yielded an emission maximum (in O) of 407 nm.

Source: the Deep4Chem optical property database
